What was measured:
[1] = system: bedstraw; test: Test B pre/postemergence bedstraw; type: in vivo, Galium aparine
Summary of the method: (§1)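 Herbicidal effect was estimated by eye on a ten-point control scale after plants spent twelve to sixteen days in a greenhouse following soil or foliar treatment. Foliar sprays targeted plants at one to four leaves; all doses were formulated in a non-phytotoxic solvent with surfactant.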

[2] = system: blackgrass; test: Test B pre/postemergence blackgrass; type: in vivo, Alopecurus myosuroides
Summary of the method: as §1

[3] = system: velvetleaf; test: Test B pre/postemergence velvetleaf; type: in vivo, Abutilon theophrasti; conditions: for Velvetleaf plant response rating: scale of 0 to 10 where 0 is no effect and 10 is complete control
Summary of the method: as §1

[4] = system: wheat; test: Test B pre/postemergence wheat; type: in vivo, Triticum aestivum; conditions: for Wheat plant response rating: scale of 0 to 10 where 0 is no effect and 10 is complete control
Summary of the method: as §1

[5] = system: Alexandergrass; test: Test D Alexandergrass; type: in vivo, Brachiaria plantaginea; conditions: Postemergence, 0 to 100 scale
[6] = system: bermuda-grass; test: Test D bermudagrass; type: in vivo, Cynodon dactylon; conditions: Postemergence, 0 to 100 scale
[7] = system: itchgrass; test: Test D itchgrass; type: in vivo, Rottboellia exaltata; conditions: Postemergence, 0 to 100 scale
[8] = system: large crabgrass; test: Test D large crabgrass; type: in vivo, Digitaria sanguinalis; conditions: Postemergence, 0 to 100 scale
[9] = system: Green foxtail; test: Test D green foxtail; type: in vivo; conditions: Postemergence, 0 to 100 scale, 0 no injury, 100 complete control
[10] = system: Green foxtail; test: Test D green foxtail; type: in vivo; conditions: Rate 250 g/ha; Postemergence; 0 to 100 scale
[11] = Postemergence, Rate 125 g/ha, scale 0 to 10, 0 is no effect, 10 is complete control
[12] = Preemergence, Rate 62 g/ha, scale 0 to 10 (0 no effect, 10 complete control)
[13] = Preemergence, Rate 250 g/ha, scale of 0 to 10 where 0 is no effect and 10 is complete control
[14] = Preemergence, Rate 500 g/ha, scale of 0 to 10 where 0 is no effect and 10 is complete control
[15] = Rate 62 g/ha, Postemergence, scale of 0 to 10 where 0 is no effect and 10 is complete control
[16] = Rate 250 g/ha, Postemergence, scale of 0 to 10 where 0 is no effect and 10 is complete control
[17] = Rate 500 g/ha, Postemergence, scale 0 to 10, 0 no effect, 10 complete control
[18] = Rate 16 g/ha, 0 no injury, 100 complete control
[19] = Rate 32 g/ha, 0 no injury, 100 complete control
[20] = Rate 64 g/ha, 0 no injury, 100 complete control
[21] = Rate 125 g/ha, 0 no injury, 100 complete control

CCC(CC)n1c(=O)on(C(=O)N(c2ccc(F)cc2)C(C)C)c1=O [Compound 358]
Plant response rating, Bedstraw [1, 11]: 2
Plant response rating, Bedstraw [1, 12]: 0
Bedstraw plant response rating (0 to 10 scale) ([1]; Preemergence, Rate 125 g/ha): 9
Bedstraw plant response rating [1, 13]: 10
Bedstraw plant response rating [1, 14]: 10
Bedstraw plant response rating [1, 15]: 0
Plant response rating, Bedstraw [1, 16]: 3
Plant response rating, Bedstraw [1, 17]: 6
Plant response rating, Blackgrass [2, 11]: 6
Plant response rating, Blackgrass [2, 12]: 4
Blackgrass plant response rating (0 to 10 scale) ([2]; Preemergence, Rate 125 g/ha): 8
Blackgrass plant response rating [2, 13]: 10
Blackgrass plant response rating [2, 14]: 10
Blackgrass plant response rating [2, 15]: 2
Plant response rating, Blackgrass [2, 16]: 8
Plant response rating, Blackgrass [2, 17]: 8
Plant response rating, Velvetleaf [3, 11]: 2
Plant response rating, Velvetleaf [3, 12]: 3
Velvetleaf plant response rating (0 to 10 scale) ([3]; Preemergence, Rate 125 g/ha): 4
Velvetleaf plant response rating ([3]; Preemergence, Rate 250 g/ha): 5
Velvetleaf plant response rating ([3]; Preemergence, Rate 500 g/ha): 8
Velvetleaf plant response rating ([3]; Rate 62 g/ha, Postemergence): 2
Plant response rating, Velvetleaf [3, 17]: 3
Plant response rating, Wheat [4, 11]: 3
Plant response rating, Wheat [4, 12]: 0
Wheat plant response rating (0 to 10 scale) ([4]; Preemergence, Rate 125 g/ha): 0
Wheat plant response rating ([4]; Preemergence, Rate 250 g/ha): 1
Wheat plant response rating ([4]; Preemergence, Rate 500 g/ha): 3
Wheat plant response rating ([4]; Rate 62 g/ha, Postemergence): 2
Plant response rating, Wheat [4, 17]: 5
Plant response rating, Alexandergrass [5, 18]: 0
Plant response rating, Alexandergrass [5, 19]: 0
Plant response rating, Alexandergrass [5, 20]: 100
Plant response rating, Alexandergrass [5, 21]: 90
Plant response rating, Alexandergrass ([5]; Rate 250 g/ha): 100
Plant response rating, Bermudagrass [6, 18]: 0
Plant response rating, Bermudagrass [6, 19]: 90
Plant response rating, Bermudagrass [6, 20]: 100
Plant response rating, Bermudagrass [6, 21]: 100
Plant response rating, Bermudagrass ([6]; Rate 250 g/ha): 100
Plant response rating, Itchgrass [7, 18]: 0
Plant response rating, Itchgrass [7, 19]: 0
Plant response rating, Itchgrass [7, 20]: 0
Plant response rating, Itchgrass [7, 21]: 0
Plant response rating, Itchgrass ([7]; Rate 250 g/ha): 100
Plant response rating, Large crabgrass [8, 18]: 0
Plant response rating, Large crabgrass [8, 19]: 40
Plant response rating, Large crabgrass [8, 20]: 100
Plant response rating, Large crabgrass [8, 21]: 100
Plant response rating, Large crabgrass ([8]; Rate 250 g/ha): 100
Plant response rating, Green foxtail ([9]; Rate 64 g/ha): 100
Plant response rating, Green foxtail ([9]; Rate 125 g/ha): 100
Plant response rating, Green foxtail [10]: 100

CC(C)N(C(=O)n1oc(=O)n(CC2CCCO2)c1=O)c1ccc(F)cc1 (centres unmarked) [Compound 343]
Plant response rating, Bedstraw [1, 11]: 0
Bedstraw plant response rating [1, 15]: 0
Plant response rating, Bedstraw [1, 16]: 0
Plant response rating, Bedstraw [1, 17]: 3
Plant response rating, Blackgrass [2, 11]: 3
Plant response rating, Blackgrass [2, 12]: 7
Blackgrass plant response rating (0 to 10 scale) ([2]; Preemergence, Rate 125 g/ha): 8
Blackgrass plant response rating [2, 13]: 9
Blackgrass plant response rating [2, 14]: 10
Blackgrass plant response rating [2, 15]: 3
Plant response rating, Blackgrass [2, 16]: 5
Plant response rating, Blackgrass [2, 17]: 6
Plant response rating, Velvetleaf [3, 11]: 0
Plant response rating, Velvetleaf [3, 12]: 5
Velvetleaf plant response rating (0 to 10 scale) ([3]; Preemergence, Rate 125 g/ha): 6
Velvetleaf plant response rating ([3]; Preemergence, Rate 250 g/ha): 7
Velvetleaf plant response rating ([3]; Preemergence, Rate 500 g/ha): 7
Velvetleaf plant response rating ([3]; Rate 62 g/ha, Postemergence): 0
Plant response rating, Velvetleaf [3, 17]: 5
Plant response rating, Wheat [4, 11]: 4
Plant response rating, Wheat [4, 12]: 0
Wheat plant response rating (0 to 10 scale) ([4]; Preemergence, Rate 125 g/ha): 0
Wheat plant response rating ([4]; Preemergence, Rate 250 g/ha): 0
Wheat plant response rating ([4]; Preemergence, Rate 500 g/ha): 5
Wheat plant response rating ([4]; Rate 62 g/ha, Postemergence): 2
Plant response rating, Wheat [4, 17]: 5
Plant response rating, Alexandergrass [5, 18]: 0
Plant response rating, Alexandergrass [5, 19]: 0
Plant response rating, Alexandergrass [5, 20]: 50
Plant response rating, Alexandergrass [5, 21]: 100
Plant response rating, Alexandergrass ([5]; Rate 250 g/ha): 100
Plant response rating, Bermudagrass [6, 18]: 0
Plant response rating, Bermudagrass [6, 19]: 80
Plant response rating, Bermudagrass [6, 20]: 60
Plant response rating, Bermudagrass [6, 21]: 100
Plant response rating, Bermudagrass ([6]; Rate 250 g/ha): 100
Plant response rating, Itchgrass [7, 18]: 0
Plant response rating, Itchgrass [7, 19]: 0
Plant response rating, Itchgrass [7, 20]: 20
Plant response rating, Itchgrass [7, 21]: 20
Plant response rating, Itchgrass ([7]; Rate 250 g/ha): 30
Plant response rating, Large crabgrass [8, 18]: 0
Plant response rating, Large crabgrass [8, 19]: 30
Plant response rating, Large crabgrass [8, 20]: 90
Plant response rating, Large crabgrass [8, 21]: 100
Plant response rating, Large crabgrass ([8]; Rate 250 g/ha): 100
Plant response rating, Green foxtail ([9]; Rate 64 g/ha): 100
Plant response rating, Green foxtail ([9]; Rate 125 g/ha): 100
Plant response rating, Green foxtail [10]: 100

COCC(C)n1c(=O)on(C(=O)N(c2ccc(F)cc2F)C(C)C)c1=O (centres unmarked) [Compound 357]
Plant response rating, Bedstraw [1, 11]: 0
Plant response rating, Bedstraw [1, 12]: 10
Bedstraw plant response rating (0 to 10 scale) ([1]; Preemergence, Rate 125 g/ha): 10
Bedstraw plant response rating [1, 13]: 10
Bedstraw plant response rating [1, 14]: 10
Bedstraw plant response rating [1, 15]: 0
Plant response rating, Bedstraw [1, 16]: 0
Plant response rating, Bedstraw [1, 17]: 5
Plant response rating, Blackgrass [2, 11]: 6
Plant response rating, Blackgrass [2, 12]: 7
Blackgrass plant response rating (0 to 10 scale) ([2]; Preemergence, Rate 125 g/ha): 8
Blackgrass plant response rating [2, 13]: 9
Blackgrass plant response rating [2, 14]: 10
Blackgrass plant response rating [2, 15]: 3
Plant response rating, Blackgrass [2, 16]: 6
Plant response rating, Blackgrass [2, 17]: 7
Plant response rating, Velvetleaf [3, 11]: 2
Plant response rating, Velvetleaf [3, 12]: 4
Velvetleaf plant response rating (0 to 10 scale) ([3]; Preemergence, Rate 125 g/ha): 5
Velvetleaf plant response rating ([3]; Preemergence, Rate 250 g/ha): 5
Velvetleaf plant response rating ([3]; Preemergence, Rate 500 g/ha): 7
Velvetleaf plant response rating ([3]; Rate 62 g/ha, Postemergence): 2
Plant response rating, Velvetleaf [3, 17]: 4
Plant response rating, Wheat [4, 11]: 5
Plant response rating, Wheat [4, 12]: 4
Wheat plant response rating (0 to 10 scale) ([4]; Preemergence, Rate 125 g/ha): 6
Wheat plant response rating ([4]; Preemergence, Rate 250 g/ha): 9
Wheat plant response rating ([4]; Preemergence, Rate 500 g/ha): 9
Wheat plant response rating ([4]; Rate 62 g/ha, Postemergence): 4
Plant response rating, Wheat [4, 17]: 7
Plant response rating, Alexandergrass [5, 18]: 0
Plant response rating, Alexandergrass [5, 19]: 20
Plant response rating, Alexandergrass [5, 20]: 100
Plant response rating, Alexandergrass [5, 21]: 100
Plant response rating, Alexandergrass ([5]; Rate 250 g/ha): 100
Plant response rating, Bermudagrass [6, 18]: 90
Plant response rating, Bermudagrass [6, 19]: 100
Plant response rating, Bermudagrass [6, 20]: 100
Plant response rating, Bermudagrass [6, 21]: 100
Plant response rating, Bermudagrass ([6]; Rate 250 g/ha): 100
Plant response rating, Itchgrass [7, 18]: 0
Plant response rating, Itchgrass [7, 19]: 0
Plant response rating, Itchgrass [7, 20]: 0
Plant response rating, Itchgrass [7, 21]: 30
Plant response rating, Itchgrass ([7]; Rate 250 g/ha): 50
Plant response rating, Large crabgrass [8, 18]: 100
Plant response rating, Large crabgrass [8, 19]: 100
Plant response rating, Large crabgrass [8, 20]: 100
Plant response rating, Large crabgrass [8, 21]: 100
Plant response rating, Large crabgrass ([8]; Rate 250 g/ha): 100
Plant response rating, Green foxtail ([9]; Rate 64 g/ha): 100
Plant response rating, Green foxtail ([9]; Rate 125 g/ha): 100
Plant response rating, Green foxtail [10]: 100

Reference: US6737383B1, “Herbicidal oxadiazolidines” (priority 1999, dated 2004)
